# Experimental data as given in patent US20240280594A1, “MULTIWELL PLATE LIPOPHILICITY ASSAY” (Hoffmann-La Roche Inc., priority 2021, published 2024).
# Where two headings read alike, the source gives them in different places.
# Tests used:
# physchem = settings: pH 7.4
# [1] = cited from earlier work
# [2] = pH 7.4
# [3] = shake flask, pH 7.4, average literature value
SMILES,"Literature LogD [1, 3]",logD at 90 min (physchem),further results
CCCC(C)(COC(N)=O)COC(N)=O [Meprobamate],–,–,logD (physchem): 0.76; Literature LogD ([1]; pH 7.4): 0.7
CC(C(=O)O)c1cccc(C(=O)c2ccccc2)c1 (centres unmarked) [Ketoprofen],−0.23,–,–
CC(C)Cc1ccc(C(C)C(=O)O)cc1 (centres unmarked) [Ibuprofen],1.27,0.97,–
CN(C)CCC=C1c2ccccc2CCc2ccccc21 [Amitriptyline],2.79,2.87,–
CN(C)CCCN1c2ccccc2CCc2ccc(Cl)cc21 [Clomipramine],3.28,3.46,–
COC1=CC(=O)C[C@@H](C)[C@]12Oc1c(Cl)c(OC)cc(OC)c1C2=O [Griseofulvin],–,2.19,–
O=C(O)Cc1ccccc1Nc1c(Cl)cccc1Cl [Diclofenac],1.14,1.12,–
CN1CCCCC1CCN1c2ccccc2Sc2ccc([S+](C)[O-])cc21 (centres unmarked) [Mesoridazine],1.81,1.74,–
Cc1ncc([N+](=O)[O-])n1CCO [Metronidazole],−0.07,-0.22,–
CC(CCc1ccccc1)NCC(O)c1ccc(O)c(C(N)=O)c1 (centres unmarked) [Labetalol],1.09,1.08,–
CC(=O)[C@H]1CC[C@H]2[C@@H]3CCC4=CC(=O)CC[C@]4(C)[C@H]3CC[C@]12C [Progesterone],–,–,Literature LogD ([1]; pH 7.4): 3.76
CN(C)CCCN1c2ccccc2Sc2ccc(Cl)cc21 [Chlorpromazine],3.16,3.26,–
COc1ccc2c(c1)c(CC(=O)O)c(C)n2C(=O)c1ccc(Cl)cc1 [Indomethacin],0.76,0.87,–
COCCc1ccc(OCC(O)CNC(C)C)cc1 (centres unmarked) [Metoprolol],−0.17,0.06,–
NC(=O)N1c2ccccc2C=Cc2ccccc21 [Carbamazepine],–,1.59,–
Cn1c(=O)c2[nH]cnc2n(C)c1=O [Theophyline],–,–,CAMDIS FBP LogD [2]: −0.16; Literature LogD ([1]; pH 7.4): −0.02
CC(C(=O)O)c1ccc(-c2ccccc2)c(F)c1 (centres unmarked) [Flurbiprofen],0.91,0.8,–
C=CCc1ccccc1OCC(O)CNC(C)C (centres unmarked) [Alprenolol],0.88,1.03,–
C[C@]12C=CC(=O)C=C1CC[C@@H]1[C@@H]2[C@@H](O)C[C@@]2(C)[C@H]1CC[C@]2(O)C(=O)CO [Prednisolone],1.45,1.53,–
COCCOC(=O)C1=C(C)NC(C)=C(C(=O)OC(C)C)C1c1cccc([N+](=O)[O-])c1 (centres unmarked) [Nimodipine],4.18,3.95,–
C[C@]12CC[C@H]3[C@@H](CCC4=CC(=O)CC[C@@]43C)[C@@H]1CC[C@@H]2O [Testosterone],–,–,Literature LogD ([1]; pH 7.4): 3.23
CCCSc1ccc2nc(NC(=O)OC)[nH]c2c1 [Albendazole],3.29,3.41,–
C[C@@H]1C[C@H]2[C@@H]3CCC4=CC(=O)C=C[C@]4(C)[C@@]3(F)[C@@H](O)C[C@]2(C)[C@@]1(O)C(=O)CO [Dexamethason],–,–,CAMDIS FBP LogD [2]: 1.82; Literature LogD ([1]; pH 7.4): 1.82
NS(=O)(=O)c1cc(C2(O)NC(=O)c3ccccc32)ccc1Cl (centres unmarked) [Chlorthalidone],–,0.9,–
O=C1NC(=O)C(c2ccccc2)(c2ccccc2)N1 [Phenytoin],2.23,2.32,–
COc1ccc(Cl)cc1C(=O)NCCc1ccc(S(=O)(=O)NC(=O)NC2CCCCC2)cc1 [Glyburide],2.19,–,–
CC(=O)CC(c1ccccc1)c1c(O)c2ccccc2oc1=O (centres unmarked) [Warfarin],–,–,logD (physchem): 0.87; Literature LogD ([1]; pH 7.4): 1.12
CCC1(c2ccccc2)C(=O)NCNC1=O [Primidone],0.91,0.74,–
CC(=O)Nc1ccc(O)cc1 [Paracetamol],0.3,–,–
